Experiments:
[1] = Cytotoxicity, EZ4U Cell Proliferation and Cytotoxicity Assay, HeLa; assay type: cell-based; conditions: human, HeLa cells, cervical cancer HeLa
Protocol: (§1) The cytotoxicity of compounds was investigated using HeLa (cervical cancer), SW837 and HCT-116 (colon cancers) cell lines, and the results are shown in Table 1 and Figure S2 in the Supplementary Materials. […] In general, the HeLa cell line was less sensitive to the inhibitors than the HCT-116 and SW837 cells.
(§2) The human cervical cancer HeLa cells were grown in Iscove’s modified Dulbecco’s medium (IMDM) with 40 μg/mL gentamicin, 50 IU/mL penicillin, 50 μg/mL streptomycin (MP Biomedicals), and 10% of fetal bovine serum (Biolot) in a 5% CO2 atmosphere. Human colon adenocarcinoma HCT-116, rectum adenocarcinoma SW837, and human embryo kidney HEK293A cell lines were cultured in DMEM medium (Invitrogen) supplemented with 10% fetal bovine serum (FBS) (Invitrogen), penicillin (100 units/mL), and streptomycin (100 μg/mL), at 37 °C, 5% CO2 in a humid atmosphere. After the formation of a 30–50% monolayer, the tested compounds were added to the medium. The volume of the added reagents was 1/100 of the total volume of the culture medium, and the amount of DMSO was 1% of the final volume. Control cells were grown in the presence of 1% DMSO. The cell culture was monitored for 3 days.
(§3) The cytotoxicity of the compounds to HeLa and HEK293A cell lines was examined using the EZ4U Cell Proliferation and Cytotoxicity Assay (Biomedica, Austria), according to the manufacturer’s protocols.

[2] = target: Tdp1 (Homo sapiens, UniProt Q9NUW8); assay: Tdp1 cleavage activity, fluorophore quencher-coupled DNA-biosensor, real-time; assay type: biochemical; set-up: inferred from the pET 16B vector and Ni-chelating resin purification; made in house; conditions: recombinant Tdp1 1.5 nM, 50 nM biosensor; read-out: IC50 (Tdp1 activity inhibition at 50%)
Sequence of Tdp1 (Q9NUW8 whole entry): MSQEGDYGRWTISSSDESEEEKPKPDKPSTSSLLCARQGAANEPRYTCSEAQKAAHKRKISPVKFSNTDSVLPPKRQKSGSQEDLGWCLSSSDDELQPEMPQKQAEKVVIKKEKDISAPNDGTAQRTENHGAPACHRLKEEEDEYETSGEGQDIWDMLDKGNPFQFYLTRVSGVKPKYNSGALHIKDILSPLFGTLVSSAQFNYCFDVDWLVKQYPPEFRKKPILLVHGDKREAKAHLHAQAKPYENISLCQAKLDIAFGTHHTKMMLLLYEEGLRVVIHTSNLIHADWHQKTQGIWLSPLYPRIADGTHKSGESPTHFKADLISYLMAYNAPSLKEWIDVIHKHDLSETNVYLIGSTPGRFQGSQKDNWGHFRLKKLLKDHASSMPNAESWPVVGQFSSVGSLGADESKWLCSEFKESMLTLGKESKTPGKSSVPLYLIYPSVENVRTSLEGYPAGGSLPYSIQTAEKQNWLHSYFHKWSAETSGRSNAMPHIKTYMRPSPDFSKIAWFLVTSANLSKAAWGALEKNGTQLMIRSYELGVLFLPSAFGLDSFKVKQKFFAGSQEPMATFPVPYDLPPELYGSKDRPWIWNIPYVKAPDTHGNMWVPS
Protocol: The recombinant Tdp1 was purified to homogeneity by chromatography on Ni-chelating resin and phosphocellulose P11 as described, using plasmid pET 16B-Tdp1, kindly provided by Dr. K.W. Caldecott (University of Sussex, United Kingdom). Tdp1 activity was detected as described in the work. Briefly, we measured the fluorescence intensity after quencher removal from a fluorophore quencher–coupled DNA oligonucleotide catalyzed by Tdp1. The reaction was carried out at different concentrations of inhibitors. The control samples contained 1% DMSO. The reaction mixtures contained Tdp1 buffer (50 mM Tris-HCl pH 8.0, 50 mM NaCl, and 7 mM β-mercaptoethanol), 50 nM biosensor, and an inhibitor being tested. The reaction was started by the addition of purified Tdp1 (1.5 nM). The biosensor (5′-[FAM] AAC GTC AGGGTC TTC C [BHQ]-3′) was synthesized in the Laboratory of Biomedical Chemistry at the Institute of Chemical Biology and Fundamental Medicine (Novosibirsk, Russia).
The reactions were incubated on a POLARstar OPTIMA fluorimeter (BMG LAB-TECH, GmbH) to measure fluorescence every 55 s (ex. 485 nm/em. 520 nm) during the linear phase (here, data are from minute 0 to minute 8). The values of IC50 were determined using a six-point concentration response curve in a minimum of three independent experiments, and were calculated using MARS Data Analysis 2.0 (BMG LABTECH).

[3] = tested on: HEK293A cells; assay: Cytotoxicity on noncancerous cell line HEK293A (EZ4U); assay type: cell-based, human; conditions: concentrations up to 30 μM; data not shown
Protocol: as §1, §2, §3

[4] = Cytotoxicity, MTT test, SW837; assay type: cell-based; conditions: human, SW837 cells; colorectal SW837, 72 h MTT
Protocol: as §1, §2
(§4) The medium was removed, and the dark blue crystals of formazan were dissolved in 100 μL of isopropanol. The absorbance at 570 nm (peak) and 620 nm (baseline) was determined using a microplate reader Multiscan FC (Thermo Fisher Scientific Corporation). All concentrations were performed in triplicate. The values are given as mean ± standard deviation (S.D.) values, and all measurements were repeated three times.

[5] = Cytotoxicity, MTT test, HCT-116; assay type: cell-based; conditions: human, HCT-116 cells; colorectal HCT-116, 72 h MTT
Protocol: as §1, §2, §4

[6] = tested on: HeLa cells; assay: Sensitizing of HeLa cells to topotecan by Tdp1 inhibitors; assay type: cell-based, human; conditions: human, 3 days, 5 µM
Protocol: (§5) The potential for sensitizing the cancer cell lines to topotecan using the Tdp1 inhibitors was investigated using the MTT assay. Neutralizing the enzymatic activity of Tdp1 by blocking access to its catalytic site using a small molecule should sensitize the cytotoxic potential of topotecan, since the complex of Top1 with DNA cannot be unraveled. […] Nontoxic concentrations of the adamantane derivatives (5 μM) were used for the HeLa cell line; the dose response for topotecan was measured and the corresponding CC50 values were derived, and the results are shown in Figure 4 for 20c and in Table 2 for all the derivatives.
(§6) For HeLa cells, increased cytotoxicity was seen when the adamantanes and topotecan were combined. […] The combination index (CI) for different concentrations of topotecan and 20c at 5 μM was in the range 0.49–0.82, and at 10 μM of 20c, it was 0.23–0.78. This indicates a synergistic effect of topotecan and 20c. The CI values were calculated with the CompuSyn version 1.0 software. For the HCT-116 cells, the synergistic effects of the compounds were different than for the HeLa cells. […] The CI plot at a different fraction affected (Fa) was determined for topotecan (5, 15, 150, 500 and 1500 nM) and 20g (1, 3, 10, 20 μM). The CI values for most of the combinations correspond to a synergistic effect (CI < 1, see Figure S3 in the Supplementary Materials).
as §2, §3

[7] = tested on: HCT-116 cells; assay: Sensitizing of HCT-116 cells to topotecan by Tdp1 inhibitors; assay type: cell-based, human
Protocol: as §5, §6, §2, §4

## CC1(C)[C@H]2CC=C(CCSc3n[nH]c(C45CC6CC(CC(C6)C4)C5)n3)[C@@H]1C2 [20g, 5-(Adamantan-1-yl)-3-((2-((1R,5S)-6,6-dimethylbicyclo[3.1.1]hept-2-en-2-yl)ethyl)thio)-1H-1,2,4-triazole]
[1]
  CC50 at 3 days: 74 ± 17 µM
[2]
  IC50: 0.57 ± 0.14 µM
[3]
  effect on cell viability, HEK293A: no effect on cell viability
[4]
  CC50 at 72 h: 40 ± 4 µM
[5]
  CC50 at 72 h: 34 ± 6 µM
[6]
  HeLa CC50 of topotecan with Tdp1 inhibitor: 2.6 µM
[7]; HCT-116, topotecan 5-1500 nM, inhibitor 1, 3, 10, 20 μM, most of the combinations
  combination index (CI) with topotecan: < 1
[7]; human, 72 h, 20 µM
  HCT116 CC50 of topotecan with Tdp1 inhibitor: 235.8 (20) nM
